Test results: US9592213B2, “Prophylactic and/or therapeutic agent for dysmenorrhea” (National University Corporation Kumamoto University, priority 2009, dated 2017)
“Also recorded” adds a separate entry of the source.

Assays:
[1] = Patient history: adverse effects of earlier drugs in study subjects; type: in vivo, human; details: Subject I, administration from Mar. 18, 2010
[2] = test system: Immortalized human retinal pigment epithelial cell line ARPE-19; experiment: Example B1: transition of cell morphology from mesenchymal form to epithelial form after TGFβ2 and TNFα; type: cell-based; details: tranilast 1 μg/ml added 48 hours after TGFβ2 5 ng/ml and TNFα 100 ng/ml, read after 96 hours
Procedure: Immortalized human retinal pigment epithelial cell line ARPE-19 (ATCC No.: CRL-2302) was disseminated into a 96-well glass plate (EZView Culture Plate, LB Cover Glass Bottom, 96 wells, Iwaki) at 1×10^4 cells/well followed by culturing at 37° C. in a 5% CO2 environment. After 5 days, 150 μl aliquots each of DMEM-F12 (serum-free, Sigma-Aldrich) medium supplemented by 5 ng/ml of TGFβ2 and 100 ng/ml of TNFα were prepared and used to replace the original medium in the wells and cultured at 37° C. in a 5% CO2 environment.
After 48 hours, the plate was removed from the incubator followed by the addition of tranilast (1 μg/ml) and culturing at 37° C. in a 5% CO2 environment. After 96 hours, the plate was washed with PBS and the cells were fixed for 30 minutes with 4% paraformaldehyde (Wako), and after washing with PBS, were stained for 1 hour with F-actin (Alexa Fluor 568 Phalloidin, Invitrogen) and nuclei (Hoechst 33342, Invitrogen) followed by washing with PBS and then immediately photographing using a fluorescence microscope (Keyence) at a magnification factor of 40×.

EM-E6/E7/hTERT cells = experiment: Example B2: western blotting of fibronectin and N-cadherin expression in endometrial epithelial cells; type: cell-based; details: tranilast 320 μM, 80 μM, 20 μM with TGFβ2 5 ng/ml, TNFα 100 ng/ml or both, 48 hours
Procedure: Cell line EM-E6/E7/hTERT cells (EM) derived from endometrial epithelium were disseminated in a 6-well glass plate (EZView Culture Plate, LB Cover Glass Bottom, 6 wells, Iwaki) at 1×10^5 cells/well, followed by culturing for 2 days at 37° C. in an environment having a carbon dioxide concentration of 5% in DMEM/F12 medium and in the presence of 10% serum, and then culturing for 3 days after replacing the medium with serum-free DMEM/F12 medium.
Subsequently, tranilast (320 μM, 80 μM, 20 μM) was added to medium containing TGFβ2 at 5 ng/ml, TNFα at 100 ng/ml or both followed by replacing the medium. Protein was recovered 48 hours after having replaced the medium with the medium containing TGFβ2 or TNFα, and expression levels of fibronectin and N-cadherin were compared by western blotting.
Anti-fibronectin antibody (clone ID: F14, Epitomics) and anti-N-cadherin antibody (clone ID: 32/N-cadherin, BD Transduction Laboratories) were used for the antibodies.

[3] = Clinical study of therapeutic effect of oral administration of tranilast in dysmenorrhea patients; type: in vivo, human
Procedure: Subject A was given 100 mg of tranilast three times a day by oral administration (300 mg per day, divided three times daily) daily for about six months starting on Sep. 1, 2008.
Menstrual pain was measured according to a numerical rating scale (NRS). In the NRS, the patient was asked to evaluate and record the degree of pain by themself by judging the degree of pain according to 11 levels ranging from level 0 indicating the absence of pain to level 10 indicating maximum pain. Menstrual blood loss was evaluated according to 5 levels ranging from level 0 indicating the absence of blood loss up to level 4 as blood loss increased.
The term “average” in the graphs indicates a value obtained by dividing the total sum of the pain level for each menstrual period by the number of days on which pain was felt.
The term “max” indicates a value of the day when the most intense pain was felt during each menstrual period.
Pain during menstruation was evaluated by the record made for each day by the patient according the 11 levels from level 0 indicating the absence of pain to level 10 indicating maximum pain in the same manner as Subjects A and B, using the NRS method.
The average values and maximum values of NRS scores indicating the intensity of pain during each menstrual period were derived, and the values were compared between the menstrual period at the start of administration and the last menstrual period during the administration period as shown in graphs of FIGS. 8A and 9A. In addition, the degrees of decrease in average values and maximum values for menstrual pain during the last menstrual period relative to the first menstrual period at the start of administration were represented as improvement rates, and are shown in FIGS. 8B and 9B.
Moreover, Subjects A, C, D, E, F and G, but excluding Subject B, underwent examinations at the facility conducting the clinical study at roughly one month intervals during the administration period, and were interviewed by a specialist in the department of gynecology. Interview findings before the start of administration and interview findings at the time of their final visit were compared and are shown in FIG. 10.

[4] = cited from earlier work
[5] = continuous infusion for 3.5 days at 7.5 mg/kg, normal adult; cited from earlier work
[6] = Subject A, organic dysmenorrhea, 100 mg three times a day orally, about six months
[7] = Subject B, August menstrual period, 100 mg/day
[8] = Subject B, September menstrual period, 200 mg/day
[9] = Subject B, after start of administration
[10] = Subject B, functional dysmenorrhea, 100-200 mg/day orally, about six months

With C[C@]12CCC3=C4CCC(=O)C=C4CC[C@H]3[C@@H]1CC[C@@]2(O)CC#N [dienogest] the “adverse effect in patient history leading to discontinuation” value [1] was “persistent abnormal genital bleeding”.

In the case of COc1ccc(C=CC(=O)Nc2ccccc2C(=O)O)cc1OC [Tranilast, N-(3,4-dimethoxycinnamoyl) anthranilic acid], the cell morphology [2] is reported as “exhibited an epithelial form”, the “foci formed after TGFβ2 and TNFα” value [2] is reported as “alleviated” and the “expression level of N-cadherin” value (EM-E6/E7/hTERT cells) is reported as “inhibited the expression”. The “expression level of fibronectin” value (EM-E6/E7/hTERT cells) was “inhibited the expression”, the “lower abdominal pain and lower back pain during menstruation (NRS scores)” value [3, 6] was “trend of decrease; also recorded: effects of alleviating lower abdominal pain and lower back pain were observed” and the menstrual blood loss [3, 6] was “trend of decrease”. The “adverse side effects from taking tranilast” value ([3]; Subject B) was “no adverse side effects”, the menstrual blood loss [3, 7] was “remained high” and the menstrual pain [3, 7] was “less menstrual pain”. For the same compound, the “pain and blood loss sensed by patient” value ([3]; Subject B, December, 100 mg/day) was “reduced pain and blood loss”, the menstrual blood loss [3, 8] was “Reduction” and the menstrual pain [3, 8] was “Reduction”. For the same compound, the duration of menstruation [3, 9] was “decreased significantly”, the symptoms of menorrhagia [3, 9] was “clearly improved” and the “lower abdominal pain and lower back pain during menstruation (NRS scores)” value [3, 10] was “clearly decrease; also recorded: decrease significantly”. For the same compound, the menstrual blood loss [3, 10] was “clearly decrease; also recorded: decreased significantly”, the “pain at menstrual period” value ([3]; Subject H, organic dysmenorrhea, 100 mg three times per day orally, roughly one month) was “Pain diminished” and the need for analgesic ([3]; Subject H, roughly one month after beginning administration) was “no longer need to take an analgesic”. The “menstrual pain and chronic pelvic pain when not menstruating (interview findings)” value ([3]; Subject I, examination Jun. 4, 2010) was “diminished and no longer interfered with their job”, the “pain at first menstrual period after beginning administration” value ([3]; Subject I, organic dysmenorrhea, 100 mg three times per day orally) was “the pain diminished” and the “analgesic use at first menstrual period after beginning administration” value ([3]; Subject I, before: multiple days with four analgesic tablets per day) was “one tablet of analgesic per day for 3 days”. The “pain during menstruation, last menstrual period of administration vs menstrual period at start (NRS average and maximum)” value ([3]; Subjects A, B, C, D, E, F and G) was “prominent decreases”, the “interview findings by gynecological specialist on menstrual pain, final visit vs before start” value ([3]; Subjects A, C, D, E and F) was “menstrual pain diminished” and the “solubility in 1,4-dioxane” value ([4]; 1,4-dioxane) was “soluble”. The “solubility in N,N-dimethylformamide” value ([4]; N,N-dimethylformamide) was “freely soluble”, the “solubility in diethyl ether” value ([4]; diethyl ether) was “very slightly soluble” and the solubility in ethanol ([4]; ethanol) was “slightly soluble”. For the same compound, the solubility in water ([4]; water) was “practically insoluble” and the Cmax [5] was 2200 ng/mL.
